`CS(=O)(=O)c1ccc(-c2[nH]c3ccc(F)cc3c2-c2ccccc2)cc1` showed a melting point of 243 to 245 °C.
Next, `CC(=O)Oc1ccc(Cl)cc1C(=O)O`: 146 to 148 °C; `C1=C(c2ccc3c(c2)OCO3)CCC2(C1)OCCO2`: 75 to 76 °C; `O=[N+]([O-])c1ccc(CO)c(CCO)c1`: 79 to 81 °C.
With `O=C1C2CC3CC1CC(c1cc(Br)ccc1O)(C3)C2` the figure was 287 to 289 °C; with `CNCC1Cc2cc(OC)cc(-c3ccccc3F)c2O1` (centres undefined), 110 to 112 °C.
With `CCSc1c(Nc2c(C)c(=O)c2=O)ccc2[nH]cc(CCCO)c12` the figure was 119 °C; with `CC(=O)OCc1ccc(-c2nc(=O)c3ccccc3s2)cn1`, 171 to 172 °C.
`COc1ccc(C(=O)NC(N)=NC(=O)Cn2c(Cl)ccc2Cl)cc1` gave a melting point of 215 to 217 °C.
With `N#CCC(=O)NCc1ccc(Cl)nc1` the figure was 119 °C; with `CCOC(=O)c1ncn2c1CN(C)C(=O)c1ncccc1-2`, 252 to 254 °C; with `O=C(O)C(F)(F)c1cccc(OCc2ccccc2Cl)c1OCc1ccccc1Cl`, 55 to 57 °C.
With `CCn1ncc2c(NCC3CCCCC3)c3cc(S(C)=O)ccc3nc21` (centres undefined) the figure was 186 to 187 °C.
Next, `CC(C)(C)OC(=O)Nc1cc(OCc2ccccc2)c2ccc(C#N)cc2c1`: 145 °C.
On to `O=C1Nc2ccc(Cl)cc2C1(NCCc1ccccn1)c1ccccc1Cl` (centres undefined), for which the melting point is 178 °C.
Next, `Cn1nc(-c2ccccc2)c(N2CCOCC2)c(C=NO)c1=O`: 182 to 183 °C; `COc1cccc(OC)c1CNC(=O)c1ccc2cnccc2n1`: 169 to 171 °C.
With `CCOC(=O)c1cn(-c2ccc(F)cc2)c2nc(Cl)c(F)cc2c1=O` the figure was 230 to 232 °C.
With `COC(=O)C1=C(C)NC(C)=C(C(=O)OCCN2CCN(c3cccc(Cl)c3Cl)CC2)C1c1cccc([N+](=O)[O-])c1` (centres undefined) the figure was 189 to 190 °C; with `COc1c(-c2cc3c(s2)CCCC3O)ccc2c(=O)c(C(=O)O)cn(C3CC3)c12` (centres undefined), 237 to 239 °C.
The compound `CCCCCCCOc1c(OC)cc(N)c2nccc(C)c12` had a melting point of 68 to 70 °C.
With `O=C(CCC1CCCC1)Nc1ccc(N2CCC(NC[C@H](O)COc3cccc4[nH]c(=O)[nH]c34)CC2)cc1` the figure was 140 to 144 °C.
Next, `Cc1nn(-c2ccc(F)cc2)cc1C(=O)Nc1ccc(OCC(C)(C)C)c(C#N)c1`: 181 to 182 °C; `Oc1ccc(-c2ccc(O)cc2I)c(I)c1`: 171 to 172 °C.
With `CCOC(=O)c1cc(CCCOCCCCCCNCC(O)c2cc(Cl)c(N)c(Cl)c2)ccn1` (centres undefined) the figure was 68 to 70 °C.
In turn, `C#CCOc1ccc2c(c1)c(-c1ccc(C(C)C)cc1)nc(=O)n2Cc1cccc(OC(C)(C)C)n1` registered a melting point of 62 to 65 °C.
With `O=C(O)c1ccc(S(=O)(=O)Oc2ccc(-c3ccc(-c4c(C(=O)c5ccccc5)oc5ccccc45)cc3)cc2[N+](=O)[O-])cc1O` the figure was 105 to 107 °C; with `CC(=O)c1ccc(-c2ccc(F)cc2Br)cc1`, 70 to 72 °C.
With `COc1cccc(C#Cc2ncn3c2[C@@H]2CCCN2C(=O)c2c(Cl)cccc2-3)c1` the figure was 204 to 205 °C; with `Cc1c(C)c2c(c(C)c1O)C(c1ccc(N3CCN(C)CC3)cc1)C(C)(C)O2` (centres undefined), 159 to 161 °C; with `CC(C)Nc1ccc([N+](=O)[O-])cc1C(=O)c1ccccc1`, 155 °C.
Next, `CC(=NNc1ccc(-c2ccc(=O)n(C)n2)cc1)c1ccc(O)cc1O`: 263 to 268 °C.
The compound `COc1ccc(-c2ccccc2NC(=N)N(C)C)cc1` yielded a melting point of 130 to 131 °C.
Next, `N#Cc1ccc(C(=CC(=O)N2CCCCC2)n2ccnc2)cc1`: 160 to 165 °C.

By melting point is commonly meant the temperature, or range, at which the solid turns liquid.

The values are drawn from a melting point compilation (Tetko et al.; mined from patent text by program, amines drawn as free bases though some values may be those of a salt).
